Laboratory results published in PubChem BioAssay AID488881 (Sanford-Burnham Center for Chemical Genomics, 2010).
Calls of active or inactive are those of the source.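 Rule for the calls: active = mean EC50 below 10 µM; inactive = the rest.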

The compounds below were run against Type-1 angiotensin II receptor (Homo sapiens) (UniProt P30556) (assay: AT1 receptor agonists, beta-arrestin recruitment, SAR follow-up, selectivity assay for APJ agonist project, cell-based, CHO-K1 PathHunter, luminescence (AID 488881)). Conditions: CHO-K1 AGTR1 PathHunter beta-arrestin.
Sequence of Type-1 angiotensin II receptor (Homo sapiens) (P30556 whole entry, looked up): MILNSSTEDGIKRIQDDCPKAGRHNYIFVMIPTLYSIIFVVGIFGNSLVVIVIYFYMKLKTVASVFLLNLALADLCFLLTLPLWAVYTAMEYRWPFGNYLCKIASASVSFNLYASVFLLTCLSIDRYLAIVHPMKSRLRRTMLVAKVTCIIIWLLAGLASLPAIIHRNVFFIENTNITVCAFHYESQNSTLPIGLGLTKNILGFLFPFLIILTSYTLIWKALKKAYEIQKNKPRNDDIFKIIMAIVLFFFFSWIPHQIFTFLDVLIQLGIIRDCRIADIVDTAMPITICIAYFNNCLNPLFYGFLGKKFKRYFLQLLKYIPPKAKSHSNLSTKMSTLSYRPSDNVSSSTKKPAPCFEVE

Q: How did the EC50 turn out when CCc1c(O)nc(SC)n(C(C)CC)c1=O (configuration not stated) was run?
A: The EC50 was > 79 µM (inactive).

Q: Which EC50 does the source give for C=CCn1c(SCc2ccccc2)nc(O)c(CC)c1=O here?
A: The EC50 was > 79 µM (inactive).

Q: For C=CCSc1nc(O)c(CC)c(=O)n1C(C)CC (configuration not stated), which EC50 is on record?
A: The EC50 was > 79 µM (inactive).

Q: How did the EC50 turn out when CSc1nc(=O)cc(N)n1-c1ccc(C)cc1 was run?
A: The EC50 was > 79 µM (inactive).

Q: For CC1=C(C)C(=NOS(=O)(=O)c2ccc(C)cc2)C=CC1=O, which EC50 is on record?
A: The EC50 was > 79 µM (inactive).

Q: Which EC50 does the source give for CCCSc1nc(O)c(CC)c(=O)n1C(C)CC (configuration not stated) here?
A: The EC50 was > 79 µM (inactive).

Q: Which EC50 does the source give for CC1=CC(=O)C=C(C)C1=NOS(=O)(=O)c1ccccc1 here?
A: The EC50 was > 79 µM (inactive).

Q: How did the EC50 turn out when CC1=CC(=O)C=C/C1=N\OS(=O)(=O)c1ccc(C)cc1 was run?
A: The EC50 was > 79 µM (inactive).

Q: With CCc1c(O)nc(SCc2ccccc2)n(C2CCCCC2)c1=O as the compound, how does the EC50 read?
A: The EC50 was > 79 µM (inactive).

Q: Cc1ccc(S(=O)(=O)Nc2nc(-c3ccccc3)cs2)cc1 was tested. Which EC50 did it give?
A: The EC50 was > 79 µM (inactive).

Q: CC1=CC(=O)C(C(C)C)=C/C1=N/OS(=O)(=O)c1ccccc1 was tested. Which EC50 did it give?
A: The EC50 was > 79 µM (inactive).

Q: For CCc1c(O)nc(SC)n(C2CCCCC2)c1=O, which EC50 is on record?
A: Its EC50 is > 79 µM (inactive).

Q: For CN(C)CCSc1nc(O)c(-c2ccccc2)c(=O)n1-c1ccccc1, which EC50 is on record?
A: The EC50 was > 79 µM (inactive).

Q: How did the EC50 turn out when CCc1c(O)n(C2CCCCC2)c(=S)[nH]c1=O was run?
A: Its EC50 is > 79 µM (inactive).

Q: How did the EC50 turn out when C=CCSc1nc(O)c(CC)c(=O)n1-c1ccc(C)cc1 was run?
A: The EC50 was > 79 µM (inactive).

Q: For CC1=C/C(=N/OS(=O)(=O)c2ccccc2)C(C)=CC1=O, which EC50 is on record?
A: Its EC50 is > 79 µM (inactive).

Q: Which EC50 does the source give for COc1ccccc1-n1c(SCC(=O)c2ccccc2)nc(O)cc1=O here?
A: The EC50 was > 79 µM (inactive).

Q: O=S(=O)(Nc1nc(-c2ccccc2)cs1)c1ccc(Br)cc1 was tested. Which EC50 did it give?
A: The EC50 was > 79 µM (inactive).

Q: How did the EC50 turn out when CC1=CC(=O)C(C(C)C)=CC1=NOS(=O)(=O)c1ccccc1 was run?
A: Its EC50 is > 79 µM (inactive).

Q: For CCN1/C(=C\C=C2/SC(=S)N(C)C2=O)Sc2ccccc21, which EC50 is on record?
A: Its EC50 is > 79 µM (inactive).

Q: CCSc1nc(O)c(CC)c(=O)n1C1CCCCC1 was tested. Which EC50 did it give?
A: The EC50 was > 79 µM (inactive).

Q: Which EC50 does the source give for CC1=CC(=NOS(=O)(=O)c2ccccc2)C=C(C)C1=O here?
A: Its EC50 is > 79 µM (inactive).

Q: For CC1=C/C(=N/OS(=O)(=O)c2ccc(C)cc2)C=CC1=O, which EC50 is on record?
A: Its EC50 is > 79 µM (inactive).

Q: For CC1=C/C(=N\OS(=O)(=O)c2ccc(Cl)cc2)C=CC1=O, which EC50 is on record?
A: Its EC50 is > 79 µM (inactive).

Q: For CC1=C/C(=N/OS(=O)(=O)c2ccc(C)cc2)C(C(C)C)=CC1=O, which EC50 is on record?
A: Its EC50 is > 79 µM (inactive).

Q: With Cc1ccc(S(=O)(=O)ON=C2C=CC(=O)C=C2)cc1 as the compound, how does the EC50 read?
A: Its EC50 is > 79 µM (inactive).

Q: For CC1=CC(=NOS(=O)(=O)c2ccc(Cl)cc2)C=C(C)C1=O, which EC50 is on record?
A: Its EC50 is > 79 µM (inactive).

Q: CC1=C/C(=N\OS(=O)(=O)c2ccc(C)cc2)C(C)=CC1=O was tested. Which EC50 did it give?
A: The EC50 was > 79 µM (inactive).

Q: How did the EC50 turn out when CC1=CC(=NOS(=O)(=O)c2ccccc2)C=CC1=O was run?
A: Its EC50 is > 79 µM (inactive).

Q: Which EC50 does the source give for CCc1c(O)nc(SCc2ccccc2)n(C(C)CC)c1=O (configuration not stated) here?
A: The EC50 was > 79 µM (inactive).

Q: For COc1ccc(S(=O)(=O)O/N=C2\C=C(C(C)C)C(=O)C=C2C)cc1, which EC50 is on record?
A: Its EC50 is > 79 µM (inactive).

Q: With Cc1cc(C)n2nc3nc(N4CCOCC4)nc(-c4ccccc4)c3c2n1 as the compound, how does the EC50 read?
A: The EC50 was > 79 µM (inactive).

Q: CC1=CC(=NOS(=O)(=O)c2ccc(C)cc2)C=C(C)C1=O was tested. Which EC50 did it give?
A: The EC50 was > 79 µM (inactive).

Q: With C=CCSc1nc(O)c(CC)c(=O)n1C1CCCCC1 as the compound, how does the EC50 read?
A: Its EC50 is > 79 µM (inactive).

Q: Which EC50 does the source give for CCCCSc1nc(O)c(CC)c(=O)n1C1CCCCC1 here?
A: Its EC50 is > 79 µM (inactive).

Q: For CCc1c(O)nc(SC(C)CC)n(C(C)CC)c1=O (configuration not stated), which EC50 is on record?
A: The EC50 was > 79 µM (inactive).

Q: CCCCSc1nnc(NC(=O)CSc2nc3ncccc3[nH]2)s1 was tested. Which EC50 did it give?
A: The EC50 was > 79 µM (inactive).

Q: With CCSc1nc(O)c(CC)c(=O)n1C(C)CC (configuration not stated) as the compound, how does the EC50 read?
A: Its EC50 is > 79 µM (inactive).

Q: With COc1ccc(S(=O)(=O)ON=C2C=C(C)C(=O)C(C)=C2)cc1 as the compound, how does the EC50 read?
A: The EC50 was > 79 µM (inactive).

Q: Which EC50 does the source give for CCN1/C(=C/C(=O)c2sc(=S)n(CC)c2O)Sc2ccccc21 here?
A: The EC50 was > 79 µM (inactive).

Q: Which EC50 does the source give for CC1=CC(=NOS(=O)(=O)c2ccccc2)C(C(C)C)=CC1=O here?
A: The EC50 was > 79 µM (inactive).

Q: How did the EC50 turn out when O=S(=O)(Nc1nc(-c2ccccc2)cs1)c1ccc(Cl)cc1 was run?
A: Its EC50 is > 79 µM (inactive).
